The molecules below were run against T1, histamine 3 receptor (H3R) (Homo sapiens, UniProt Q9Y5N1) (assay: Binding assay with 3H-(R)α-methylhistamine (competition binding)). Conditions: competition with 3H(R)α-methylhistamine (1 nM), membranes of the human HR3-CHO cell line; Ki calculated from IC50 by Cheng-Prusoff.
T1 construct: expressed in transfected cells; host or cells: CHO cells (HR3-CHO)
Experimental: Binding Assay with ^3H—(R)α-methylhistamine
Saturation binding experiments were performed using HR3-CHO membranes prepared as described in Takahashi, K, Tokita, S., Kotani, H. (2003) J. Pharmacol. Exp. Therapeutics 307, 213-218.
An appropriate amount of membrane (60 to 80 μg protein/well) was incubated with increasing concentrations of ^3H(R)α-Methylhistamine di-hydrochloride (0.10 to 10 nM). Non specific binding was determined using a 200 fold excess of cold (R)α-Methylhistamine dihydrobromide (500 nM final concentration). The incubation was carried out at room temperature (in deep-well plates shaking for three hours). The final volume in each well was 250 μl. The incubation was followed by rapid filtration on GF/B filters (pre-soaked with 100 μl of 0.5% PEI in Tris 50 mM shaking at 200 rpm for two hours). The filtration was made using a cell-harvester and the filter plates were then washed five times with ice cold washing buffer containing 0.5 M NaCl. After harvesting, the plates were dried at 55° C. for 60 min, then scintillation fluid (Microscint 40, 40 microl in each well) was added and the amount of radioactivity on the filter was determined in Packard top-counter after shaking the plates for two hours at 200 rpm at room temperature.
Binding Buffer: 50 mM Tris-HCl pH 7.4 and 5 mM MgCl2×6H2O pH 7.4. Washing Buffer: 50 mM Tris-HCl pH 7.4 and 5 mM MgCl2×6H2O and 0.5 M NaCl pH 7.4.
Indirect measurement of affinity of H3R inverse agonists: twelve increasing concentrations (ranging from 10 μM to 0.3 nM) of the selected compounds were always tested in competition binding experiments using membranes of the human HR3-CHO cell line. An appropriate amount of protein, e.g. approximately 500 cpm binding of RAMH at Kd, were incubated for 1 hour at room temperature in 250 μl final volume in 96-well plates in presence of ^3H(R)α-Methylhistamine (1 nM final concentration=Kd). Non-specific binding was determined using a 200 fold excess of cold (R)α-Methylhistamine dihydrobromide.
All compounds were tested at a single concentration in duplicate. […] The concentration at which 50% inhibition of the radioligand ^3H(R)α-methylhistamine is obtained (the IC50) is determined from the linear regression of a plot of the logarithm of the concentration versus percent inhibition measured for the different concentrations. Ki's were calculated from IC50 based on Cheng-Prusoff equation (Cheng, Y, Prusoff, W H (1973) Biochem Pharmacol 22, 3099-3108): Ki=IC50/[1+D/Kd] wherein D is the concentration of the radioligand and Kd is the binding constant for the radioligand binding to the receptor under the conditions used in the competition experiment.

T1 sequence (Q9Y5N1 whole entry): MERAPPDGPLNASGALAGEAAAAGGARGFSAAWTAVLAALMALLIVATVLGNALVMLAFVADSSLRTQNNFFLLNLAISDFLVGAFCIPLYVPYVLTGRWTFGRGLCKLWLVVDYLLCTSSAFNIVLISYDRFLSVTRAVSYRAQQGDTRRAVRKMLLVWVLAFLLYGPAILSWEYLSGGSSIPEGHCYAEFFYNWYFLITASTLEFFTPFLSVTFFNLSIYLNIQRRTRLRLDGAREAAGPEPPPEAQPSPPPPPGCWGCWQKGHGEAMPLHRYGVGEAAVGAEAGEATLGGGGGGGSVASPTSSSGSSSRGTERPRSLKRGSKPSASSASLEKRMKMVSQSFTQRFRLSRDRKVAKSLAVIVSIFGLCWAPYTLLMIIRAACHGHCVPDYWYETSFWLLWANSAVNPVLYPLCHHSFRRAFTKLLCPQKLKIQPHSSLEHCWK

| Structure (SMILES) | Ki |
| --- | --- |
| COC(=O)N1CCN(C(=O)c2oc3cc(OC4CCN(C5CCC5)CC4)c(Cl)cc3c2C(C)C)CC1 [Example 76, 4-[5-Chloro-6-(1-cyclobutyl-piperidin-4-yloxy)-3-isopropyl-benzofuran-2-carbonyl]-piperazine-1-carboxylic acid methyl ester] | 0.5 nM |
| O=C(c1oc2cc(OC3CCN(C4CCC4)CC3)ccc2c1-c1ccc(F)cc1)N1CCC(F)(F)CC1 [Example 65, [6-(1-Cyclobutyl-piperidin-4-yloxy)-3-(4-fluoro-phenyl)-benzofuran-2-yl]-(4,4-difluoro-piperidin-1-yl)-methanone] | 0.1 nM |
| COC(=O)N1CCN(C(=O)c2oc3cc(OC4CCN(C(C)C)CC4)ccc3c2-c2ccc(F)cc2)CC1 [Example 45, 4-[3-(4-Fluoro-phenyl)-6-(1-isopropyl-piperidin-4-yloxy)-benzofuran-2-carbonyl]-piperazine-1-carboxylic acid methyl ester] | 0.4 nM |
| CC(C)N1CCC(Oc2ccc3c(-c4ccccc4)c(C(=O)N4CCC(F)(F)CC4)oc3c2)CC1 [Example 17, (4,4-Difluoro-piperidin-1-yl)-[6-(1-isopropyl-piperidin-4-yloxy)-3-phenyl-benzofuran-2-yl]-methanone] | 1.3 nM |
| Cc1c(C(=O)N2CCC(F)(F)CC2)oc2cc(OC3CCN(C4CCC4)CC3)c(Cl)cc12 [Example 91, [5-Chloro-6-(1-cyclobutyl-piperidin-4-yloxy)-3-methyl-benzofuran-2-yl]-(4,4-difluoro-piperidin-1-yl)-methanone] | 2.6 nM |
| CC(C)N1CCC(Oc2cc3oc(C(=O)N4CCS(=O)(=O)CC4)c(-c4ccc(F)cc4)c3cc2Cl)CC1 [Example 82, [5-Chloro-3-(4-fluoro-phenyl)-6-(1-isopropyl-piperidin-4-yloxy)-benzofuran-2-yl]-(1,1-dioxo-1λ6thiomorpholin-4-yl)-methanone] | 0.4 nM |
| CC(C)N1CCC(Oc2cc3cc(C(=O)N4CCS(=O)(=O)CC4)sc3cc2Cl)CC1 [Example 69, [6-Chloro-5-(1-isopropyl-piperidin-4-yloxy)-benzo[b]thiophen-2-yl]-(1,1-dioxo-1λ6thiomorpholin-4-yl)-methanone] | 1.5 nM |
| COC(=O)N1CCN(C(=O)c2oc3cc(OC4CCN(C(C)C)CC4)c(Cl)cc3c2C(C)C)CC1 [Example 72, 4-[5-Chloro-3-isopropyl-6-(1-isopropyl-piperidin-4-yloxy)-benzofuran-2-carbonyl]-piperazine-1-carboxylic acid methyl ester] | 0.8 nM |
| COC(=O)N1CCN(C(=O)c2oc3cc(OC4CCN(C5CCC5)CC4)c(Cl)cc3c2C)CC1 [Example 94, 4-[5-Chloro-6-(1-cyclobutyl-piperidin-4-yloxy)-3-methyl-benzofuran-2-carbonyl]-piperazine-1-carboxylic acid methyl ester] | 2.3 nM |
